# Patent US20060009433A1, “Neuroprotective spirostenol pharmaceutical compositions” (priority 2003, published 2006)
# Legend:
# PC12 cells = assay: Cellular ATP levels (ATPLite-M) in Aβ-treated PC12 cells; type: cell-based, rat; settings: 0.1 and 1.0 μM Aβ
# Method: PC12 cells (rat pheochromocytoma neurons) from ATCC (Manassas, Va.) were cultured at 37° C. and 5% CO2 in RPMI 1640 medium devoid of glutamine and supplemented with 10% fetal bovine serum and 5% horse serum. Yao Z, Drieu K and Papadopoulos V., The Gingko biloba extract EGb 761 rescues PC12 neuronal cells from β-amyloid-induced cell death by inhibiting the formation of (3-amyloid-derived diffusible neurotoxic ligands, Brain Res, 889, 181-190 (2001). Cells were seeded in 96-well plates (8×10^4 cells/well). After an overnight period of incubation, increasing concentrations of aggregated Aβ (0.1, 1 and 10 μM) were added to the cells in the presence or absence of the indicated concentrations of the SP compounds to be tested. After 72-hours incubation time various parameters, markers of cell viability, were determined. Mouse MA-10 tumor Leydig cells were maintained at 37° C. in DMEM/Ham's F12 (Biofluids, Rockville, Md.) medium supplemented with 5% heat-inactivated fetal calf serum and 2.5% horse serum in 5% CO2. Cells were plated on 96-well plates at the density of 2.5×10^4 cells/well for overnight. The cells were stimulated with the indicated concentrations of the various SP compounds in 0.2 ml/well serum-free medium for 2 hours. The culture medium was collected and tested for progesterone production by radioimmunoassay.
# Cellular ATP concentrations were measured using the ATPLite-M™ luminescence assay (Packard BioSciences Co.). For this assay, cells were cultured on black 96-well ViewPlate™ and the ATP concentrations were measured on a TopCount NXT™ counter (Packard BioSciences Co.) following the recommendations of the manufacturer.
# NT2 cells [1] = assay: Expression of GFRα receptor proteins in NT2 cells (immunoblot); type: cell-based, human; settings: 25 μM; 6 days
# Method: Cells were fixed with newly prepared 3.7% formaldehyde for 15 minutes and blocked by blocking reagent (Zymed Laboratories, San Francisco, Calif., USA). Inuunostaining was performed using rabbit anti-NF200, anti-NF145 and anti-NF70 (all at 1:200), and goat anti-GFRα1, anti-GFRα2 and anti-GFRα3 (all at 1:100); Santa Cruz Biotechnology (Santa Cruz, Calif., USA). All antibodies were used at 200 μg/ml. After overnight incubation at 4° C., the immunoreactivity was detected using horseradish peroxidase-conjugated anti-rabbit or anti-mouse IgG for 1 hour at room temperature and visualized using AEC.
# Cells were then washed with phosphate-buffered saline (PBS) and lysed with loading buffer. Proteins were resolved by sodium dodecyl sulfate polyacrylamide gel electrophoresis (SDS-PAGE) on 4-20% gradient acrylamide-bis-acrylamide gel at 125 V for 2 hours and electrotransferred onto nitrocellulose membranes. After blocking with 5% nonfat milk, the membranes were subjected to immunoblot analysis by incubation overnight with rabbit anti-NF200, anti-NF145 and anti-NF70 (all at 1:4000) (Chemicon International, Temecula, Calif., USA) and goat anti-GFRα1, anti-GFRα2 and anti-GFRα3 (all at 1:500) (200 μg/ml; Santa Cruz Biotechnology, Inc., Santa Cruz, Calif., USA), goat anti-rabbit or rabbit anti-goat IgG-horseradish peroxidase being used as the secondary antibody (1:5000) (Zymed Laboratories, San Francisco, Calif., USA). Protein bands were visualized using ECL reagents (Amersham Pharmacia Biotech, Piscataway, N.J., USA). Image-densitometric analyses of the immunoreactive protein bands were performed using OptiQuant-image analysis software (Packard BioScience, Meriden, Conn., USA). Glyceraldehyde-3-phosphate dehydrogenase (GAPPH) served as an internal standard.
# NT2 cells [2] = assay: LDH and MTT assays, NT2 cell viability
# Aβ25-35 = Aβ25-35 (Homo sapiens, UniProt P05067); assay: CPBBA, Aβ25-35; type: binding
# Method: (§1) At the end of the incubation time, samples were separated by 1.5% agarose (Type I-B) gel electrophoresis and transferred to nitrocellulose membrane (Schleicher & Schuell, Keene, N.H.) in 10×SSC buffer. The membrane was exposed to tritium-sensitive screen and analyzed by phosphoimaging using the Cyclone Storage phosphor system (Packard BioScience, Meridien, Conn.). Image-densitometric analysis was performed using the OptiQuant software (Packard). […] Low molecular weight unincorporated 22i-hydroxycholesterol is separated and eliminated during electrophoresis.
# Aβ1-42 [3] = target: T1, Aβ1-42 (Homo sapiens, UniProt P05067); assay: Cholesterol-protein binding blot assay (CPBBA), Aβ1-42; settings: for inhibition of binding of radiolabeled 22R-hydroxycholesterol to Aβ1-42: 50 μM Aβ1-42
# Method: as §1
# The membrane with the 22R-hydroxycholesterol-Aβ peptide complexes was then used to examine Aβ levels. Membranes were blocked by incubating the nitrocellulose in 5% milk and treated for immunodetection of Aβ using ECL reagents (Amersham-Pharmacia, Piscataway, N.J.). Li et al., Proc. Natl. Acad. Sci. USA, 98, 1267-1272 (2001). Anti-Aβ antibody and secondary antibodies were used at 0.2 μg/ml and 1:5000 dilution, respectively.
# Aβ1-42 [4] = target: T1, Aβ1-42; assay: Aβ aggregation assay (SDS-PAGE, immunoblot); type: biochemical; settings: 50 μM Aβ1-42; 24 hours at 37° C.
# Method: At the end of the incubation, proteins were separated by SDS-PAGE on 4-20% gradient acrylamide-bis-acrylamide gel at 125V for 2 hours. Proteins were visualized by coomassie blue staining. Aβ species were identified by immunoblot analysis. Yao, Z. et al., Brain Res. (2001).
# The ability of 22R-hydroxycholesterol to alter Aβ aggregation was also examined. […] At the end of the incubation proteins were separated by SDS-PAGE and visualized by coomassie blue (FIG. 6A). Aβ species formed were identified by immunoblotting using an anti-Aβ polyclonal antiserum (FIG. 6B). Aβ aggregation can be seen on the top of the gel and it is absent in control-media lane. […] A 100 kDa band recognized by the Aβ polyclonal antiserum used in all samples, including control-media, probably reflects non-specific binding of the antiserum.
# NT2 cells [5] = assay: Flow cytometry of NT2 cells (cell cycle); type: cell-based, human; settings: 25 μM, 12 days of treatment
# Method: Human NT2 precursor (Ntera2/D 1 teratocarcinoma) cells were obtained from Stratagene (La Jolla, Calif., USA) and cultured following the instructions of the supplier. […] After trypsinization, the cells were collected, suspended (1-2×10^6 cells in 0.1 ml citrate/DMSO solution), stained with a solution containing propidium iodide (50 μg/ml) and RNase (10 μg/ml), and subjected to flow cytometric analysis in an FACS Scan flow cytometer (Becton Dickinson, Menlo Park, Calif., USA) equipped with a Modfit software program (Vindelov et al., Cytometry, 3, 332 (1983)).
# T1 sequence (P05067 672-713): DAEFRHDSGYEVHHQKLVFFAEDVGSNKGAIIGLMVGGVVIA
compound,measurement,setting,value
"CC(C)CC[C@@H](O)[C@@H](C)[C@H]1CC[C@H]2[C@@H]3CC=C4C[C@@H](O)CC[C@]4(C)[C@H]3CC[C@]12C [SP222, 22R-hydroxycholesterol]",reversal of Aβ-induced decrease in ATP levels,PC12 cells,did not block
same,decrease of GFRα3 protein expression,NT2 cells [1],about 16%
same,expression of GFRα1,NT2 cells [1],no significant effect
same,increase of GFRα2 protein expression over the control level,NT2 cells [1],45%
same,cytotoxicity at high concentrations,"NT2 cells [2]; LDH and MTT, 25-50 μM, 3-day treatment",cytotoxic
same,concentration affecting viability of undifferentiated NT2 cells,NT2 cells [2]; MTT,> 10 µM
same,binding to Aβ25-35,Aβ25-35,did not bind
same,inhibition of binding of radiolabeled 22R-hydroxycholesterol to Aβ1-42,Aβ1-42 [3]; 50 μM unlabeled,50%
same,inhibition of binding of radiolabeled 22R-hydroxycholesterol to Aβ1-42,Aβ1-42 [3]; 200 μM unlabeled,90%
same,binding to Aβ1-42,"Aβ1-42 [3]; CPBBA, native conditions",binds
same,effect on Aβ aggregation,Aβ1-42 [4],did not affect Aβ aggregation
same,percentage of cells in the G2/M phase,NT2 cells [5]; from 34.43%,15.90%
same,percentage of cells in the G0/G1 phase,NT2 cells [5]; from 35.32%,50.34%
